Assay results: ChEMBL document CHEMBL1201862, “PubChem BioAssay data set” (2004)
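96-well plates; 48 h exposure; 5 concentrations. Endpoints by linear interpolation between flanking doses. Not reached: highest tested concentration assigned. At the GI50, growth is halved.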 Active and inactive are the calls of the source. Rule as the data show it: active = GI50 up to about 1.1 µM and inactive = higher.

Tests used:
Assay in all cases: NCI tumour cell line growth inhibition, 48 h
A498 = tested on: A498
A549 = tested on: A549
HCC 2998 = tested on: HCC 2998
IGROV-1 = tested on: IGROV-1
LOX IMVI = tested on: LOX IMVI
Malme-3M = tested on: Malme-3M
NCI-H460 = tested on: NCI-H460
NCI-H522 = tested on: NCI-H522
NCI/ADR-RES = tested on: NCI/ADR-RES
OVCAR-5 = tested on: OVCAR-5
OVCAR-8 = tested on: OVCAR-8
RPMI-8226 = tested on: RPMI-8226
SF-295 = tested on: SF-295
SNB-19 = tested on: SNB-19
U-251 = tested on: U-251
UACC-257 = tested on: UACC-257
UACC-62 = tested on: UACC-62
MDA-MB-231 = tested on: MDA-MB-231
MDA-N = tested on: MDA-N
SR = tested on: SR

Row | Structure (SMILES) | GI50 (A498) | GI50 (A549) | GI50 (HCC 2998) | GI50 (IGROV-1) | GI50 (LOX IMVI) | GI50 (Malme-3M) | GI50 (NCI-H460) | GI50 (NCI-H522) | GI50 (NCI/ADR-RES) | GI50 (OVCAR-5) | GI50 (OVCAR-8) | GI50 (RPMI-8226) | GI50 (SF-295) | GI50 (SNB-19) | GI50 (U-251) | GI50 (UACC-257) | GI50 (UACC-62) | GI50 (MDA-MB-231) | GI50 (MDA-N) | GI50 (SR)
1 | CC(C)NC(=O)OCc1c2c(n(C)c1COC(=O)NC(C)C)-c1ccccc1CC2 | 23.4 µM (inactive) | 23.7 µM (inactive) | 13.1 µM (inactive) | 14 µM (inactive) | 9.31 µM (inactive) | 5.51 µM (inactive) | 14.1 µM (inactive) | 5.32 µM (inactive) | 15 µM (inactive) | 17.2 µM (inactive) | 12 µM (inactive) | 3.23 µM (inactive) | 15.9 µM (inactive) | 14.6 µM (inactive) | 9.18 µM (inactive) | 15.2 µM (inactive) | 12.7 µM (inactive) | – | – | –
2 | Cc1ccsc1/C=N/NC1=NCCN1 | > 100 µM (inactive) | > 100 µM (inactive) | > 100 µM (inactive) | > 100 µM (inactive) | > 100 µM (inactive) | > 100 µM (inactive) | – | – | > 100 µM (inactive) | > 100 µM (inactive) | > 100 µM (inactive) | > 100 µM (inactive) | 55.3 µM (inactive) | > 100 µM (inactive) | > 100 µM (inactive) | > 100 µM (inactive) | > 100 µM (inactive) | > 100 µM (inactive) | > 100 µM (inactive) | –
3 | O=C1C(=C(C(F)(F)Cl)C(F)(F)Cl)C2CCC1C2 (stereo not drawn) | > 10 µM (inactive) | 2.2 µM (inactive) | 5.31 µM (inactive) | 1.89 µM (inactive) | 1.33 µM (inactive) | 1.55 µM (inactive) | 3.15 µM (inactive) | 0.225 µM (active) | 2.15 µM (inactive) | 2.96 µM (inactive) | 1.94 µM (inactive) | 0.849 µM (active) | 4.67 µM (inactive) | > 10 µM (inactive) | 5.27 µM (inactive) | 1.9 µM (inactive) | 2.01 µM (inactive) | 1.56 µM (inactive) | – | 0.0655 µM (active)
4 | Cc1ccc(S(=O)(=O)NNC(C[N+](=O)[O-])c2ccccc2)cc1 (stereo not drawn) | 16.1 µM (inactive) | 16.7 µM (inactive) | 2.9 µM (inactive) | 7.23 µM (inactive) | 3.64 µM (inactive) | 29 µM (inactive) | 17.9 µM (inactive) | 23.4 µM (inactive) | 54.6 µM (inactive) | 44.8 µM (inactive) | 22 µM (inactive) | 3.56 µM (inactive) | 21.3 µM (inactive) | 7.14 µM (inactive) | 14.5 µM (inactive) | 19.7 µM (inactive) | 26.1 µM (inactive) | 28.4 µM (inactive) | – | 1.06 µM (active)
5 | CC(=O)Oc1c(-c2ccccc2)oc2ccccc12 | 2.96 µM (inactive) | 1.51 µM (inactive) | 1.31 µM (inactive) | 2.08 µM (inactive) | 0.398 µM (active) | 2.83 µM (inactive) | 0.678 µM (active) | 2.3 µM (inactive) | 2.66 µM (inactive) | 1.85 µM (inactive) | 2.88 µM (inactive) | 0.813 µM (active) | 0.946 µM (active) | 1.53 µM (inactive) | 1.04 µM (active) | 2.59 µM (inactive) | 3.13 µM (inactive) | 1.45 µM (inactive) | – | 0.394 µM (active)
6 | O=C(OCC(OC(=O)c1ccccc1)C(OC(=O)c1ccccc1)C(OC(=O)c1ccccc1)c1cnn(-c2ccccc2)n1)c1ccccc1 (stereo not drawn) | > 100 µM (inactive) | > 100 µM (inactive) | > 100 µM (inactive) | > 100 µM (inactive) | > 100 µM (inactive) | > 100 µM (inactive) | > 100 µM (inactive) | > 100 µM (inactive) | > 100 µM (inactive) | > 100 µM (inactive) | > 100 µM (inactive) | > 100 µM (inactive) | > 100 µM (inactive) | > 100 µM (inactive) | – | > 100 µM (inactive) | > 100 µM (inactive) | – | > 100 µM (inactive) | > 100 µM (inactive)
7 | NCCC(=O)NC(Cc1c[nH]cn1)C(=O)O (stereo not drawn) | – | > 100 µM (inactive) | > 100 µM (inactive) | > 100 µM (inactive) | > 100 µM (inactive) | > 100 µM (inactive) | > 100 µM (inactive) | > 100 µM (inactive) | > 100 µM (inactive) | > 100 µM (inactive) | > 100 µM (inactive) | > 100 µM (inactive) | > 100 µM (inactive) | > 100 µM (inactive) | > 100 µM (inactive) | > 100 µM (inactive) | – | > 100 µM (inactive) | > 100 µM (inactive) | –
8 | N#Cc1ccc(C2NN=CC23C(=O)c2ccccc2OC3c2ccccc2)cc1 (stereo not drawn) | 26.9 µM (inactive) | 29.4 µM (inactive) | 35.7 µM (inactive) | 50.6 µM (inactive) | 30.9 µM (inactive) | 53.7 µM (inactive) | 27.4 µM (inactive) | 24.2 µM (inactive) | 31.5 µM (inactive) | 45.7 µM (inactive) | 42.4 µM (inactive) | 20.8 µM (inactive) | 34.4 µM (inactive) | 27.6 µM (inactive) | 23.8 µM (inactive) | 28 µM (inactive) | 26.7 µM (inactive) | 57.4 µM (inactive) | – | 24 µM (inactive)
9 | CCOC(=O)NC(=O)c1cn(CCN(CCO)C(=O)NCCCCCCNC(=O)N(CCO)CCn2cc(C(=O)NC(=O)OCC)c(=O)[nH]c2=O)c(=O)[nH]c1=O | > 100 µM (inactive) | > 100 µM (inactive) | > 100 µM (inactive) | > 100 µM (inactive) | > 100 µM (inactive) | > 100 µM (inactive) | > 100 µM (inactive) | > 100 µM (inactive) | > 100 µM (inactive) | > 100 µM (inactive) | > 100 µM (inactive) | > 100 µM (inactive) | > 100 µM (inactive) | > 100 µM (inactive) | > 100 µM (inactive) | > 100 µM (inactive) | > 100 µM (inactive) | – | – | –
10 | CCOC(=O)Cc1nc2cc(F)c(F)cc2[nH]c1=O | – | > 100 µM (inactive) | > 100 µM (inactive) | – | > 100 µM (inactive) | > 100 µM (inactive) | > 100 µM (inactive) | – | > 100 µM (inactive) | > 100 µM (inactive) | > 100 µM (inactive) | > 100 µM (inactive) | > 100 µM (inactive) | > 100 µM (inactive) | > 100 µM (inactive) | > 100 µM (inactive) | > 100 µM (inactive) | > 100 µM (inactive) | > 100 µM (inactive) | –
11 | CC12CC(OC(=O)[C@]1(C)O)[C@@H]([C@]1(O)CC[C@H]3[C@@H]4C[C@H]5O[C@]56[C@@H](O)C=CC(=O)[C@]6(C)[C@H]4CC[C@@]31C)C2 (stereo partly drawn) | 13.8 µM (inactive) | 30.5 µM (inactive) | 16.2 µM (inactive) | 17.3 µM (inactive) | 4.42 µM (inactive) | – | 12.3 µM (inactive) | 1.16 µM (inactive) | 5.35 µM (inactive) | 11 µM (inactive) | 3.37 µM (inactive) | – | 33.7 µM (inactive) | 40.1 µM (inactive) | 13.8 µM (inactive) | 7 µM (inactive) | 14.6 µM (inactive) | 5.2 µM (inactive) | 7.21 µM (inactive) | –
12 | O=S1(=O)C[C@@H](O)[C@H](O)CS1 | > 100 µM (inactive) | > 100 µM (inactive) | > 100 µM (inactive) | > 100 µM (inactive) | > 100 µM (inactive) | > 100 µM (inactive) | > 100 µM (inactive) | > 100 µM (inactive) | – | > 100 µM (inactive) | > 100 µM (inactive) | > 100 µM (inactive) | > 100 µM (inactive) | > 100 µM (inactive) | > 100 µM (inactive) | > 100 µM (inactive) | > 100 µM (inactive) | – | – | > 100 µM (inactive)
13 | CC(C)(Oc1ccc(C2C[C@H]2Cl)cc1)C(=O)O (stereo partly drawn) | > 100 µM (inactive) | > 100 µM (inactive) | – | > 100 µM (inactive) | > 100 µM (inactive) | – | > 100 µM (inactive) | > 100 µM (inactive) | – | > 100 µM (inactive) | – | > 100 µM (inactive) | > 100 µM (inactive) | > 100 µM (inactive) | > 100 µM (inactive) | > 100 µM (inactive) | > 100 µM (inactive) | > 100 µM (inactive) | > 100 µM (inactive) | > 100 µM (inactive)
14 | Cc1ccc2nc(CN3CCCCC3)cc(=O)n2c1 | – | > 100 µM (inactive) | > 100 µM (inactive) | > 100 µM (inactive) | > 100 µM (inactive) | > 100 µM (inactive) | > 100 µM (inactive) | > 100 µM (inactive) | > 100 µM (inactive) | > 100 µM (inactive) | > 100 µM (inactive) | > 100 µM (inactive) | > 100 µM (inactive) | > 100 µM (inactive) | > 100 µM (inactive) | > 100 µM (inactive) | > 100 µM (inactive) | > 100 µM (inactive) | – | > 100 µM (inactive)
15 | O=C(CC(C(=O)c1cccs1)c1ccccc1)c1ccccc1O (stereo not drawn) | – | 13.1 µM (inactive) | – | 4.98 µM (inactive) | 12.4 µM (inactive) | – | 48.1 µM (inactive) | 3.21 µM (inactive) | 6.01 µM (inactive) | > 100 µM (inactive) | 9.62 µM (inactive) | 12.8 µM (inactive) | 8.67 µM (inactive) | 23.9 µM (inactive) | 9.93 µM (inactive) | > 30.7 µM (inactive) | 14.7 µM (inactive) | – | 4.93 µM (inactive) | 9.27 µM (inactive)
16 | O=C1N[C@@H]2C(=C[C@H](O)[C@@H](O)[C@H]2O)c2cc3c(c(O)c21)OCO3 [NARCICLASINE] | 0.045 µM (active) | 0.045 µM (active) | 0.045 µM (active) | 0.045 µM (active) | 0.045 µM (active) | 0.045 µM (active) | 0.045 µM (active) | – | 0.045 µM (active) | 0.0632 µM (active) | 0.045 µM (active) | 0.045 µM (active) | 0.0634 µM (active) | 0.045 µM (active) | 0.045 µM (active) | 0.045 µM (active) | 0.045 µM (active) | – | – | –
